This is an account of results in publication PMC3338484.

“And” between values parts separate entries of the source, which are not always exact repeats. Equal values may be shown once.

The target in assay [1] is T1, PaFolD (Pseudomonas aeruginosa, UniProt Q9I2U6).
T1 construct: hexa-histidine tag with TEV protease site (N, cleaved yes); made in house; host or cells: E. coli BL21 (DE3)
In words: FolD enzyme assay (absorbance at 350 nm), IC50 determination. Particulars: for Hill coefficient: from PaFolD IC50 curves. It is filed as biochemical. On the procedure:
Enzyme activity was assayed by measuring the absorbance at 350 nm of the intermediate product in the reaction, N ^5,N ^10-methenyl-THF, following acidification of the reaction and consequent reconversion of the final product formyl-THF to the intermediate. Following optimization of the assay buffer and determination of the enzyme linearity, assays were carried out at room temperature in a 50 µL reaction volume containing 25 mM bicine, pH 7.9, 1 mM dithiothreitol, 0.05% CHAPS, 0.2 mg mL^−1 BSA, 1 nM recombinant FolD, […] NADP^+ and 35 µM N ^5,N ^10-methylene-THF. Michaelis constants for the two substrates (NADP^+ and N ^5,N ^10-methylene-THF) were determined in an end-point assay, using these buffer and enzyme conditions.
The HTS was performed with a compound collection of 79,029 diverse structures based around 4000 chemical scaffolds. All compounds were dissolved in 100% DMSO to a concentration of 3 mM. Single point inhibition assays were carried out at room temperature in clear, flat bottom, polystyrene, 384-well plates (Matrix). Each assay was performed in a 50 µL reaction volume as described above. A standard compound (0.5 µL in DMSO) was transferred to all assay plates using a Cartesian Hummingbird (Genomics Solutions) before 25 µL of a reaction mix, containing all assay components except NADP^+ and N ^5,N ^10-methylene-THF, was added to assay plates using a Thermo Scientific Well-Mate (Matrix). The reaction was initiated and stopped with the additions of 25 µL of substrate and 50 µL of 1 M HCl, respectively, again using a Well-Mate. The FolD assay was run at room temperature for 20 min and the signal was allowed to develop for 10 min before the absorbance of each well was read at 350 nm using an EnVision multilabel plate reader (PerkinElmer Life Sciences). ActivityBase (ID Business Solutions) was used for data processing and analysis.
Compounds of interest were cherry picked from the original library plates using a series of 10-point inhibitor curves (consisting of half-log serial dilutions of compound in DMSO) and prepared in 384-well plates using a JANUS workstation (PerkinElmer Life Sciences). Each compound plate produced 10-point inhibitor curves for 30 test compounds and two curves for LY374571, the standard compound in this screen (see following paragraph for inhibitor details). Following preparation of the inhibitor curves, assays were carried out as described above. ActivityBase was again used for data processing and analysis. All IC50 curve fitting was undertaken within ActivityBase XE utilizing the underlying ‘MATH IQ’ engine of XLfit version 5.1.0.0. A four-parameter logistic dose-response curve was utilized for compound potency determination.
Enzyme activity was assayed in an optimised buffer at 1 nM PaFolD. […] When saturating concentrations of either substrate or co-factor were required N ^5,N ^10-methylene-THF was used at 250 µM and NADP^+ at 1 mM. For screening the compound library N ^5,N ^10-methylene-THF was fixed at a concentration of 35 µM and NADP^+ was saturating at 1 mM and the assay was stopped after 20 minutes (within the linear range of the assay).

The target of assay [2] is T1, PaFolD. The assay can be described thus: Surface plasmon resonance (SPR) binding to biotinylated PaFolD. As to conditions: for binding to PaFolD by SPR: running buffer with 1 mM NADP+, 1% DMSO, data not shown; for rate of association (SPR): association measured for 1 min, LY374571 could not compete off this binding. As to the method: For analysis of compounds using SPR it was necessary to produce an expression system that provided a protein carrying a biotinylation acceptor peptide (BAP-tag). This BAP-tag peptide has the sequence 5′ - […] - 3′ and is specifically biotinylated by the E. coli biotin holoenzyme synthetase, BirA. The modified PaFolD was then purified as before. Subsequently 30 µM of BAP-tagged PaFolD was incubated at 37°C overnight in buffer C (10 mM Tris-HCl pH 7.5, 200 mM KCl, 5 mM MgCl2, 100 µM d-biotin) containing 500 µM ATP and 1 µM BirA. The sample was passed through a HisTrap HP column equilibrated with buffer A to remove BirA. The flow through was collected and concentrated (Amicon 10 kDa MWCO spin column) to remove free biotin. The incorporation of biotin was monitored by MALDI-TOF analysis performed at the University of Dundee ‘Fingerprints’ Proteomics Facility using an Applied Biosystems Voyager DE-STR spectrometer. The biotinylated protein was flash frozen at 10 mg mL^−1 in 50 mM Tris-HCl, 250 mM NaCl, 15% glycerol, pH 7.5 and stored at −80°C until required.
A Biacore T100 instrument (GE Healthcare) was used for all SPR experiments. Biotinylated PaFolD was diluted 50-fold into a running buffer containing 50 mM Tris-HCl, pH 7.5, 150 mM NaCl, 5 mM MgCl2, 1 mM DTT, 0.05% Tween 20, 1 mM NADP^+ and 1% DMSO and injected over a streptavidin chip (GE Healthcare) at a flow rate of 10 µL min^−1 for 10 min to obtain a density of ∼4,000 response units. Compounds DDD55519 and DDD61461 were injected in duplicates at three-fold concentration series 136 nM–11 µM at a flow rate 30 µL min^−1. Association was measured for 1 min and dissociation for 20 min. Compounds DDD32388 and DDD58331 were injected at three-fold concentration series of between 1.23 µM–100 µM at a flow rate 30 µL min^−1. Association was measured for 1 min and dissociation 2 min. Data were referenced from a blank streptavidin surface and blank injections of buffer. Processing was carried out using Scrubber 2 software (BioLogic Software, Australia).
Background: In SPR one partner is held on a chip, and binding of the other changes the refractive index at the surface.

Assay [3] relates to P. aeruginosa PAO1 ATCC 15692. The assay can be described thus: Disc diffusion sensitivity testing. It is filed as cell-based, Pseudomonas aeruginosa. As to conditions: for clearance in disc diffusion sensitivity assay: six dilutions, approximately 115 µg to 4.5 ng per disc, zones measured after 16 and 48 hours, data not shown. On the procedure: Compounds identified by HTS were used in a disc diffusion sensitivity test against P. aeruginosa. Briefly a single colony of P. aeruginosa PAO1 ATCC 15692 was used to inoculate a 2 mL volume of LB media prior to overnight growth at 37°C. The bacteria were then diluted 1∶100 fold prior to 100 µL volumes plated onto Iso-Sensitest agar plates and dried in air for 5 minutes. Eight 3 mm discs were impregnated with 5 µl of compound, dissolved in DMSO, prior to loading onto each plate. Two controls were used per plate, one a 100% DMSO stock, the other a 10 µg stock of gentamycin. Six compound dilutions were tested per plate, ranging from approximately 115 µg to 4.5 ng. Three compounds with known antifolate activity were tested, namely methotrexate, LY354899 and LY374571 in addition to the three singletons, DDD32388, DDD55519 and DDD61461, and two of the biaryl sulphonamide series that had been identified. Plates were incubated at 37°C, and zones of inhibition measured after 16 and 48 hours.
(In general: A growth-free zone around the sample is the usual read-out of agar diffusion tests.)

Assay [4] addresses T1, PaFolD. The assay can be described thus: Differential scanning fluorimetry (DSF) thermal shift screen. Particulars: standards at 250 µM; 4 µM PaFolD, 4 mM NADP+. Format: binding. The text has this: It was reasoned that such conditions would favour crystallization. In addition two compound libraries, the Maybridge fragment set and the Prestwick collection of biologically active molecules, were screened after first assessing the suitability of the method for PaFolD, the optimum buffer and cofactor conditions and the lowest concentration of protein that generated a strong signal as previously described for our laboratory. An Mx3005p RT PCR system (Stratagene) was used to monitor protein unfolding by the increase in fluorescence of SYPRO Orange dye (Invitrogen). Briefly, the enzyme was tested against 1000 compounds from the Maybridge Rule of Three (Ro3) fragment library and 1120 compounds from the Prestwick Chemical Library. Assays were carried out in 40 µL volumes with PaFolD at 4 µM, supplemented with 4 mM NADP^+ in 50 mM Tris-HCl, 250 mM NaCl, pH 7.5 in 96 well RT PCR plates (Abgene). […] After each 1°C increase the sample was excited at 492 nm and fluorescence emissions recorded at 610 nm. […]
In advance of performing a large-scale HTS, PaFolD was assayed combining DSF with the Prestwick Chemical Library of drug-like molecules (1,200 compounds) and a bespoke Maybridge RO3 fragment library of 1,000 compounds. […] A number of compounds in the Prestwick library gave apparent thermal shifts of approximately +10°C, however all of these were rejected due to their intrinsic fluorescence. […]
Background: Differential scanning fluorimetry follows unfolding on heating by fluorescence.

Assay [5] has as its system HsFolD. Particulars: slightly different assay conditions; read-out: IC50 against HsFolD; cited from earlier work.
[6] abbreviates: IC50 (μM), confirmed HTS hits, ten-point dose response, 30 µM to 1 nM.

T1 sequence (Q9I2U6 whole entry): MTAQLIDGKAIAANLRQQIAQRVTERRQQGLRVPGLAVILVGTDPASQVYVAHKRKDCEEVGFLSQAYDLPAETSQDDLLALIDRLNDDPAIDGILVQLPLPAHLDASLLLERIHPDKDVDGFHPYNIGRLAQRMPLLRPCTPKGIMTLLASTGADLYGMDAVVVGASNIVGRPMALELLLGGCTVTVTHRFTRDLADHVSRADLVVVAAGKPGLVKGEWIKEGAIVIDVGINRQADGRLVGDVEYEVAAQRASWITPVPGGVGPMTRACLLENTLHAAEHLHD

What is called Hill coefficient is a measure of the steepness of the concentration-response curve. The molecule `CCOc1nc(N)nc(N)c1S(=O)(=O)c1ccc(Cl)cc1` [DDD32388] showed an IC50 in assay [1] (setting [6]) of 0.9 µM. In assay [1], this molecule gave a Hill coefficient of 1.6. Besides, the “binding to PaFolD by SPR” value in assay [2] was “weak”.
Take `Cc1[nH]c2c(C#N)cnn2c(=O)c1Cc1ccccc1` [DDD55519]: the IC50 in assay [1] (setting [6]) is 3.8 µM. For the same molecule, in assay [1], the Hill coefficient was determined as 1.2. Moreover, in assay [2], the “rate of association (SPR)” value is on record as “slow rates of association” and the “binding to PaFolD by SPR” value is “confirmed”.
For `Oc1cc(C(F)(F)F)nc(SCc2c(F)cccc2Cl)n1` [DDD61461], in assay [1] (setting [6]), the IC50 was 2.5 µM. In assay [1], this molecule had a Hill coefficient of 2.6. For the same molecule, in assay [2], the “rate of association (SPR)” value is “slow rates of association” and the “binding to PaFolD by SPR” value is “confirmed”.
For the molecule `Nc1nc2c(c(=O)[nH]1)N1C(=O)N(c3ccc(C(=O)N[C@@H](CCC(=O)O)C(=O)O)cc3)CC1CN2` (stereo partly shown) [LY354899, 5,6,7,8-tetrahydro-N ^5,N ^10-carbonylfolic acid], in assay [3], the “clearance in disc diffusion sensitivity assay” value is “failed to give any clearance”. In addition, in assay [4], the thermal shift result was “+9 °C”.
Broadly, the ΔTm is the change in melting temperature against a reference sample. With `Nc1nc(O)c(N)c(NC(=O)Nc2ccc(C(=O)N[C@H](CCC(=O)O)C(=O)O)cc2)n1` [LY374571, (2R)-2-[(4-{[(2,5-diamino-6-hydroxypyrimidin-4-yl)carbamoyl]amino}phenyl)formamido] pentanedioic acid], the “clearance in disc diffusion sensitivity assay” value in assay [3] is reported as “failed to give any clearance”. Further, the IC50 in assay [1] (IC50 against PaFolD, 1 nM PaFolD, 35 µM N5,N10-methylene-THF, 1 mM NADP+, 20 min) was ~0.03 µM and 0.027 µM; in assay [5] it was 3 nM. Moreover, the ΔTm at 250 µM in assay [4] came to 15 °C.
Usually Km stands for the concentration of substrate that gives half-maximal velocity. With `NC(=O)c1ccc[n+]([C@@H]2O[C@H](COP(=O)([O-])OP(=O)(O)OC[C@H]3O[C@@H](n4cnc5c(N)ncnc54)[C@H](OP(=O)(O)O)[C@@H]3O)[C@@H](O)[C@H]2O)c1` [NADP^+], the Km in assay [1] (1 nM PaFolD, end-point assay, other substrate saturating, mean ± SD (n = 4), read-out: Michaelis constant (Km)) came out at 179 ± 11 µM.
As for gentamycin, the “radius cleared (zone of inhibition)” value in assay [3] (10 µg stock control disc, P. aeruginosa PAO1) is on record as 13 mm.
